This is an account of results in PMC5218480 (PLoS ONE, 2017).

The subject of this assay is MV-4-11 cells. Put plainly: Gene expression microarray analysis (Affymetrix PrimeView) and GSEA. The assay is classed as cell-based, human. Also on record: RFU PODN (11730768_x_at) / Fold change /veh PODN (11730768_x_at) / RFU LINC00158 (11744669_a_at) / Fold change /veh LINC00158 (11744669_a_at) / RFU DUSP10 (11751237_a_at) / Fold change /veh DUSP10 (11751237_a_at) / RFU ID3 (11757404_x_at) / Fold change /veh ID3 (11757404_x_at) / RFU PLEKHG5 (11737974_s_at) / Fold change /veh PLEKHG5 (11737974_s_at) / RFU LRRC4B (11730491_at) / Fold change /veh LRRC4B (11730491_at) / RFU GIMAP4 (11747438_a_at) / Fold change /veh GIMAP4 (11747438_a_at) / RFU KRT8 (11758183_x_at) / Fold change /veh KRT8 (11758183_x_at) / RFU CNN1 (11734310_a_at) / Fold change /veh CNN1 (11734310_a_at) / RFU VPS37D (11726825_at) / Fold change /veh VPS37D (11726825_at) / RFU C10orf10 (11716522_x_at) / Fold change /veh C10orf10 (11716522_x_at) / RFU KIR2DL2 /// KIR2DL4 /// KIR2DL5A /// KIR2DL5B /// KIR2DS1 /// KIR2DS2 /// KIR2DS3 /// KIR2DS4 /// KIR3DL3 /// KIR3DL3 /// KIR3DS1 (11738374_at) / Fold change /veh KIR2DL2 /// KIR2DL4 /// KIR2DL5A /// KIR2DL5B /// KIR2DS1 /// KIR2DS2 /// KIR2DS3 /// KIR2DS4 /// KIR3DL3 /// KIR3DL3 /// KIR3DS1 (11738374_at) / RFU C1QL1 (11718748_at) / Fold change /veh C1QL1 (11718748_at) / RFU TMPRSS4 (11747572_a_at) / Fold change /veh TMPRSS4 (11747572_a_at) / RFU HAMP (11756126_x_at) / Fold change /veh HAMP (11756126_x_at) / RFU RNFT2 (11725882_a_at) / Fold change /veh RNFT2 (11725882_a_at) / RFU NR4A2 (11747474_a_at) / Fold change /veh NR4A2 (11747474_a_at) / RFU ABCC12 (11746883_a_at) / Fold change /veh ABCC12 (11746883_a_at) / RFU TMEM136 (11760407_x_at) / Fold change /veh TMEM136 (11760407_x_at) / RFU CLDN22 /// WWC2 (11732394_at) / Fold change /veh CLDN22 /// WWC2 (11732394_at) / RFU HLA-DPB1 (11760878_x_at) / Fold change /veh HLA-DPB1 (11760878_x_at) / RFU SPINT1 (11716480_a_at) / Fold change /veh SPINT1 (11716480_a_at) / RFU GAP43 (11754022_s_at) / Fold change /veh GAP43 (11754022_s_at) / RFU A4GNT (11735810_at) / Fold change /veh A4GNT (11735810_at) / RFU PRB3 (11715151_x_at) / Fold change /veh PRB3 (11715151_x_at) / RFU TUBB4B (11761932_at) / Fold change /veh TUBB4B (11761932_at) / RFU CAPN14 (11732068_a_at) / Fold change /veh CAPN14 (11732068_a_at) / RFU TMCC2 (11721928_a_at) / Fold change /veh TMCC2 (11721928_a_at) / RFU IRGQ (11745062_a_at) / Fold change /veh IRGQ (11745062_a_at) / RFU FAM174B (11720279_a_at) / Fold change /veh FAM174B (11720279_a_at) / RFU TMPRSS4 (11748680_a_at) / Fold change /veh TMPRSS4 (11748680_a_at) / RFU FAM212B (11763350_a_at) / Fold change /veh FAM212B (11763350_a_at) / RFU PLEKHG5 (11743358_a_at) / Fold change /veh PLEKHG5 (11743358_a_at) / RFU ZSCAN30 (11745921_a_at) / Fold change /veh ZSCAN30 (11745921_a_at) / RFU CMKLR1 (11741424_a_at) / Fold change /veh CMKLR1 (11741424_a_at) / RFU LOC101060620 /// MAPK8IP1 (11723275_at) / Fold change /veh LOC101060620 /// MAPK8IP1 (11723275_at) / RFU SPTSSB (11747773_x_at) / Fold change /veh SPTSSB (11747773_x_at) / RFU PRSS12 (11739890_at) / Fold change /veh PRSS12 (11739890_at) / RFU BIN1 (11741810_x_at) / Fold change /veh BIN1 (11741810_x_at) / RFU WNT11 (11732464_a_at) / Fold change /veh WNT11 (11732464_a_at) / RFU C10orf10 (11716521_a_at) / Fold change /veh C10orf10 (11716521_a_at) / RFU C5orf56 (11738089_at) / Fold change /veh C5orf56 (11738089_at) / RFU CYB561 (11721691_x_at) / Fold change /veh CYB561 (11721691_x_at) / RFU ANKRD19P (11752326_a_at) / Fold change /veh ANKRD19P (11752326_a_at) / RFU OR2T12 /// OR2T33 /// OR2T8 (11738714_s_at) / Fold change /veh OR2T12 /// OR2T33 /// OR2T8 (11738714_s_at) / RFU VCAN (11748164_a_at) / Fold change /veh VCAN (11748164_a_at) / RFU JSRP1 (11732532_at) / Fold change /veh JSRP1 (11732532_at) / RFU KRTAP10-11 (11738290_x_at) / Fold change /veh KRTAP10-11 (11738290_x_at) / RFU MYO3A (11730013_a_at) / Fold change /veh MYO3A (11730013_a_at) / RFU EBF3 (11725865_a_at) / Fold change /veh EBF3 (11725865_a_at) / RFU CAMK2N1 (11719241_x_at) / Fold change /veh CAMK2N1 (11719241_x_at) / RFU C5orf56 (11738088_a_at) / Fold change /veh C5orf56 (11738088_a_at) / RFU OLFML3 (11715873_a_at) / Fold change /veh OLFML3 (11715873_a_at) / RFU LOC100653217 /// NTM (11731650_a_at) / Fold change /veh LOC100653217 /// NTM (11731650_a_at) / RFU MAPK11 (11762145_a_at) / Fold change /veh MAPK11 (11762145_a_at) / RFU FIZ1 (11724087_x_at) / Fold change /veh FIZ1 (11724087_x_at) / RFU OASL (11726364_x_at) / Fold change /veh OASL (11726364_x_at) / RFU SOX15 (11748057_x_at) / Fold change /veh SOX15 (11748057_x_at) / RFU CD79A (11719716_a_at) / Fold change /veh CD79A (11719716_a_at) / RFU HIST1H1D (11736915_at) / Fold change /veh HIST1H1D (11736915_at) / RFU CASKIN2 (11723855_a_at) / Fold change /veh CASKIN2 (11723855_a_at) / RFU LOC730098 (11760151_x_at) / Fold change /veh LOC730098 (11760151_x_at) / RFU OR4N2 (11742367_at) / Fold change /veh OR4N2 (11742367_at) / RFU PRRT2 (11749266_a_at) / Fold change /veh PRRT2 (11749266_a_at) / RFU SNX32 (11753110_a_at) / Fold change /veh SNX32 (11753110_a_at) / RFU CDHR5 (11726645_a_at) / Fold change /veh CDHR5 (11726645_a_at) / RFU RCAN1 (11760418_a_at) / Fold change /veh RCAN1 (11760418_a_at) / RFU FAM167A (11723789_a_at) / Fold change /veh FAM167A (11723789_a_at) / RFU FAM26E (11764081_at) / Fold change /veh FAM26E (11764081_at) / RFU ISYNA1 (11749810_s_at) / Fold change /veh ISYNA1 (11749810_s_at) / RFU ACY1 (11761880_at) / Fold change /veh ACY1 (11761880_at) / RFU 11764098_at / Fold change /veh 11764098_at / RFU SAMD14 (11745864_x_at) / Fold change /veh SAMD14 (11745864_x_at) / RFU NPB (11741838_a_at) / Fold change /veh NPB (11741838_a_at) / RFU TMPRSS6 (11731388_a_at) / Fold change /veh TMPRSS6 (11731388_a_at) / RFU KRTAP10-2 (11738614_at) / Fold change /veh KRTAP10-2 (11738614_at) / RFU ARHGAP8 /// PRR5-ARHGAP8 (11727945_x_at) / Fold change /veh ARHGAP8 /// PRR5-ARHGAP8 (11727945_x_at) / RFU KRTAP5-7 /// NADSYN1 (11734609_at) / Fold change /veh KRTAP5-7 /// NADSYN1 (11734609_at) / RFU RASL12 (11751679_a_at) / Fold change /veh RASL12 (11751679_a_at) / RFU CDKN2B (11736163_a_at) / Fold change /veh CDKN2B (11736163_a_at) / RFU PRF1 (11729649_at) / Fold change /veh PRF1 (11729649_at) / RFU, ZNF638 /// ZNF638-IT1 / Fold change vs veh, ZNF638 /// ZNF638-IT1 / RFU, PANK3 / Fold change vs veh, PANK3 / RFU, SH3YL1 / Fold change vs veh, SH3YL1 / RFU, ZEB2 / Fold change vs veh, ZEB2 / RFU, NRIP1 / Fold change vs veh, NRIP1 / RFU, PTTG1IP / Fold change vs veh, PTTG1IP / RFU, CAPN2 / Fold change vs veh, CAPN2 / RFU, MED14 / Fold change vs veh, MED14 / RFU, SNORA58 / Fold change vs veh, SNORA58 / RFU, C1orf63 / Fold change vs veh, C1orf63 / RFU, LRRFIP1 / Fold change vs veh, LRRFIP1 / RFU, NDUFAF7 / Fold change vs veh, NDUFAF7 / RFU, SLC12A2 / Fold change vs veh, SLC12A2 / RFU, IBTK / Fold change vs veh, IBTK / RFU, ESF1 / Fold change vs veh, ESF1 / Fold change vs veh, TMEM50B / RFU, TAOK1 / Fold change vs veh, TAOK1 / RFU, ACBD3 / Fold change vs veh, ACBD3 / RFU, TMA16 / Fold change vs veh, TMA16 / RFU, RWDD3 / Fold change vs veh, RWDD3 / RFU, BCAT1 / Fold change vs veh, BCAT1 / RFU, EDEM3 / Fold change vs veh, EDEM3 / RFU, TMEM33 / Fold change vs veh, TMEM33 / RFU, WDR75 / Fold change vs veh, WDR75 / RFU, AHCTF1 / Fold change vs veh, AHCTF1 / RFU, TFRC / Fold change vs veh, TFRC / RFU, ZDHHC17 / Fold change vs veh, ZDHHC17 / RFU, NOM1 / Fold change vs veh, NOM1 / RFU, ARL8B / Fold change vs veh, ARL8B / RFU, ZBTB11 / Fold change vs veh, ZBTB11 / RFU, TAMM41 / Fold change vs veh, TAMM41 / RFU, KIAA1704 /// LOC100996395 / Fold change vs veh, KIAA1704 /// LOC100996395 / RFU, ING1 / Fold change vs veh, ING1 / RFU, TRMT61B / Fold change vs veh, TRMT61B / RFU, FUBP3 / Fold change vs veh, FUBP3 / RFU, TP53 / Fold change vs veh, TP53 / RFU, TNKS2 / Fold change vs veh, TNKS2 / RFU, ZFP14 / Fold change vs veh, ZFP14 / RFU, ACTR2 / Fold change vs veh, ACTR2 / RFU, PPP3R1 / Fold change vs veh, PPP3R1 / RFU, PIK3R1 / Fold change vs veh, PIK3R1 / RFU, HNRNPA1 / Fold change vs veh, HNRNPA1 / RFU, RNF170 / Fold change vs veh, RNF170 / RFU, ZNF28 / Fold change vs veh, ZNF28 / RFU, RNGTT / Fold change vs veh, RNGTT / RFU, OGT / Fold change vs veh, OGT / RFU, BRD1 / Fold change vs veh, BRD1 / RFU, MARS / Fold change vs veh, MARS / RFU, ZNF655 / Fold change vs veh, ZNF655 / RFU, FAHD1 / Fold change vs veh, FAHD1 / RFU, BDP1 / Fold change vs veh, BDP1 / RFU, LRRCC1 / Fold change vs veh, LRRCC1 / RFU, ARID1A / Fold change vs veh, ARID1A / RFU, ZNF146 / Fold change vs veh, ZNF146 / RFU, ZNF330 / Fold change vs veh, ZNF330 / RFU, GPN3 / Fold change vs veh, GPN3 / RFU, C9orf123 / Fold change vs veh, C9orf123 / RFU, N4BP2L2 / Fold change vs veh, N4BP2L2 / RFU, ARFIP1 / Fold change vs veh, ARFIP1 / RFU, FAM179B / Fold change vs veh, FAM179B / RFU, BCL10 / Fold change vs veh, BCL10 / RFU, UHRF1BP1L / Fold change vs veh, UHRF1BP1L / RFU, BET1 / Fold change vs veh, BET1 / RFU, CNOT2 / Fold change vs veh, CNOT2 / RFU, ZNF268 / Fold change vs veh, ZNF268 / Fold change vs veh, ZNF507 / RFU, DGCR2 / Fold change vs veh, DGCR2 / RFU, WDSUB1 / Fold change vs veh, WDSUB1 / Fold change vs veh, HSP90B1 /// MIR3652 / RFU, ADSS / Fold change vs veh, ADSS / RFU, GK / Fold change vs veh, GK / RFU, ZNF148 / Fold change vs veh, ZNF148 / RFU, TAF9 / Fold change vs veh, TAF9 / RFU, SLC1A5 / Fold change vs veh, SLC1A5 / RFU, SLMO2 / Fold change vs veh, SLMO2 / RFU, ABCC4 / Fold change vs veh, ABCC4 / RFU, LOC101060439 /// RAP1B / Fold change vs veh, LOC101060439 /// RAP1B / RFU, RFX7 / Fold change vs veh, RFX7 / RFU, GTPBP10 / Fold change vs veh, GTPBP10 / RFU, CNEP1R1 / Fold change vs veh, CNEP1R1 / RFU, BIVM-ERCC5 /// ERCC5 / Fold change vs veh, BIVM-ERCC5 /// ERCC5 / RFU, ILF3 / Fold change vs veh, ILF3 / RFU 11762660_at / Fold change /veh 11762660_at / RFU VCAN (11757783_s_at) / Fold change /veh VCAN (11757783_s_at) / RFU DDX43 (11728927_at) / Fold change /veh DDX43 (11728927_at) / RFU KRT8 (11758188_x_at) / Fold change /veh KRT8 (11758188_x_at) / RFU NKD1 (11759106_at) / Fold change /veh NKD1 (11759106_at) / RFU SRD5A1 (11742802_a_at) / Fold change /veh SRD5A1 (11742802_a_at) / RFU TPSAB1 /// TPSB2 (11721975_s_at) / Fold change /veh TPSAB1 /// TPSB2 (11721975_s_at) / RFU GSTM3 (11746129_a_at) / Fold change /veh GSTM3 (11746129_a_at) / RFU IL23R (11737362_x_at) / Fold change /veh IL23R (11737362_x_at) / RFU TMEM51 (11727254_a_at) / Fold change /veh TMEM51 (11727254_a_at) / RFU PIWIL2 (11732686_x_at) / Fold change /veh PIWIL2 (11732686_x_at) / RFU ORM1 (11744905_x_at) / Fold change /veh ORM1 (11744905_x_at) / RFU CCDC152 (11743942_at) / Fold change /veh CCDC152 (11743942_at) / RFU ECM1 (11717891_a_at) / Fold change /veh ECM1 (11717891_a_at) / RFU IL23R (11748794_a_at) / Fold change /veh IL23R (11748794_a_at) / RFU TNFAIP8L3 (11732012_x_at) / Fold change /veh TNFAIP8L3 (11732012_x_at) / RFU MBOAT4 (11741988_at) / Fold change /veh MBOAT4 (11741988_at) / RFU 11764193_at / Fold change /veh 11764193_at / RFU TMEM53 (11763286_at) / Fold change /veh TMEM53 (11763286_at) / RFU MAGEB2 (11727129_at) / Fold change /veh MAGEB2 (11727129_at) / RFU TMEM200A (11744735_a_at) / Fold change /veh TMEM200A (11744735_a_at) / RFU CCDC152 (11751479_a_at) / Fold change /veh CCDC152 (11751479_a_at) / RFU FAM211A (11726209_a_at) / Fold change /veh FAM211A (11726209_a_at) / RFU RGS16 (11746705_a_at) / Fold change /veh RGS16 (11746705_a_at) / RFU VCAN (11755009_s_at) / Fold change /veh VCAN (11755009_s_at) / RFU RHOB (11743442_s_at) / Fold change /veh RHOB (11743442_s_at) / RFU RGS16 (11720943_a_at) / Fold change /veh RGS16 (11720943_a_at) / RFU RGS16 (11720944_at) / Fold change /veh RGS16 (11720944_at) / RFU, VPS4B / Fold change vs veh, VPS4B / RFU, CREB1 / Fold change vs veh, CREB1 / RFU, DNAJC13 / Fold change vs veh, DNAJC13 / RFU, GNAQ / Fold change vs veh, GNAQ / RFU, CDK5R1 / Fold change vs veh, CDK5R1 / RFU, ZRANB3 / Fold change vs veh, ZRANB3 / RFU, CUL4A / Fold change vs veh, CUL4A / RFU, CCNY / Fold change vs veh, CCNY / RFU, UFL1 / Fold change vs veh, UFL1 / RFU, COG3 / Fold change vs veh, COG3 / RFU, DIAPH2 / Fold change vs veh, DIAPH2 / RFU, SKA2 / Fold change vs veh, SKA2 / RFU, AFF3 / Fold change vs veh, AFF3 / RFU, LMF1 / Fold change vs veh, LMF1 / RFU, IPO11 / Fold change vs veh, IPO11 / RFU, DFFB / Fold change vs veh, DFFB / RFU, FOXP1 / Fold change vs veh, FOXP1 / RFU, CARD8 / Fold change vs veh, CARD8 / RFU, STRN3 / Fold change vs veh, STRN3 / RFU, ADK / Fold change vs veh, ADK / RFU, RASSF2 / Fold change vs veh, RASSF2 / RFU, WIPF1 / Fold change vs veh, WIPF1 / RFU, LARP1B / Fold change vs veh, LARP1B / RFU, RASA1 / Fold change vs veh, RASA1 / RFU, RB1 / Fold change vs veh, RB1 / RFU, PPFIA1 / Fold change vs veh, PPFIA1 / RFU, MAT2A / Fold change vs veh, MAT2A / RFU, CCT5 / Fold change vs veh, CCT5 / RFU, WDR92 / Fold change vs veh, WDR92 / RFU, CUX1 / Fold change vs veh, CUX1 / RFU, TTC7A / Fold change vs veh, TTC7A / RFU, TMEM135 / Fold change vs veh, TMEM135 / RFU, DEPTOR / Fold change vs veh, DEPTOR / RFU, CPM / Fold change vs veh, CPM / RFU, DNAJB6 / Fold change vs veh, DNAJB6 / RFU, CACNA2D3 / Fold change vs veh, CACNA2D3 / RFU, DTX4 / Fold change vs veh, DTX4 / RFU, TFCP2 / Fold change vs veh, TFCP2 / RFU, GMCL1 /// GMCL1P1 / Fold change vs veh, GMCL1 /// GMCL1P1 / RFU, AEBP2 / Fold change vs veh, AEBP2 / RFU, SNHG1 /// SNORD22 /// SNORD25 /// SNORD26 /// SNORD27 /// SNORD28 /// SNORD29 /// SNORD31 / Fold change vs veh, SNHG1 /// SNORD22 /// SNORD25 /// SNORD26 /// SNORD27 /// SNORD28 /// SNORD29 /// SNORD31 / Fold change (Aza/veh), C12orf56 (ProbeSet 11735607_a_at) / Fold change (ACY-1035/veh), C12orf56 (ProbeSet 11735607_a_at) / Fold change (Aza/veh), FGFR1OP (ProbeSet 11751329_s_at) / Fold change (ACY-1035/veh), FGFR1OP (ProbeSet 11751329_s_at) / Fold change (Aza/veh), VPS36 (ProbeSet 11739960_a_at) / Fold change (ACY-1035/veh), VPS36 (ProbeSet 11739960_a_at) / RFU SYPL1 (11715823_x_at) / Fold change /veh SYPL1 (11715823_x_at) / RFU IGFBP7 (11715501_s_at) / Fold change /veh IGFBP7 (11715501_s_at) / RFU REEP3 (11722064_at) / Fold change /veh REEP3 (11722064_at) / RFU IGLL1 (11728026_x_at) / Fold change /veh IGLL1 (11728026_x_at): dose or concentration left out as unconfirmed. The following applies: ProbeSet 11740528_a_at; LIST D.

As to `Nc1ccc(-c2cccs2)cc1NC(=O)c1ccc2c(c1)cc(C1CC1)n2CCN1CCOCC1` [ACY-1035], the “RFU, AFF3” value was found to be 703.28 RFU.
